Experiments:
HER2 gene = HER2 gene (mRNA) expression; type: cell-based; conditions: dose-dependent
Protocol: To further confirm the effects of the candidate compound, […] quantitative analysis was performed. Specifically, RNA was extracted from cells using the FavorPrep Tri-RNA reagent (FAVORGEN Biotech Corp., Taiwan) and reverse-transcribed into complementary DNA (cDNA) using the PrimeScript RT Reagent Kit (Takara Bio Inc., Japan) following the manufacturer's instructions. Quantitative gene analysis was conducted using the SensiFAST SYBR No-ROX kit (Bioline, Canada). PCR was performed using the CFX96™ real-time PCR detection system (Bio-Rad, USA) under the following protocol: 95 °C for 2 minutes, and 27 cycles at 95 °C for 10 seconds, 56 °C for 10 seconds, and 72 °C for 20 seconds. The relative amount of mRNA was determined using the ΔΔCt method, and normalized against GAPDH or ACTIN. […]

[1] = test system: T47D (HER2-negative breast cancer cell line); assay: antiproliferative effect, T47D; type: cell-based; conditions: Homo sapiens, 72 hours
MED23391-625 fragment = MED23391-625 fragment (Homo sapiens, UniProt Q9ULK4); assay: LC-MS/MS protein-small molecule interaction, MED23 fragments; type: binding
MED23391-625 fragment, sequence (Q9ULK4 391-625): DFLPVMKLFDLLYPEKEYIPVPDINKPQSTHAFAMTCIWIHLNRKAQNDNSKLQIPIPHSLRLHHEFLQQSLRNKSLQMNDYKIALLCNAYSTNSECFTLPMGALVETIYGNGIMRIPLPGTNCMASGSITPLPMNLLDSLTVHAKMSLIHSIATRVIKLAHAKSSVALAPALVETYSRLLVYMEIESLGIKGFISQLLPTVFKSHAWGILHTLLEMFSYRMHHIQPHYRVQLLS

## CC(=O)N1N=C(c2cccc(O)c2)CC1c1ccc(Cl)cc1 (stereo not drawn) [Compound 15, 1-[5-(4-Chlorophenyl)-3-(3-hydroxyphenyl)-4,5-dihydropyrazol-1-yl]-ethanone]
HER2 gene
  HER2 gene expression level: significantly downregulate HER2 gene and protein expression levels in a dose-dependent manner
[1]
  IC50: 9.99 ± 0.2 µM
MED23391-625 fragment
  interaction with MED23 fragments: specifically interacted with the MED23391-625 fragment

From patent US20260373119A1, “NOVEL COMPOUND, AND COMPOSITION FOR PREVENTING OR TREATING HER2-POSITIVE CANCER, COMPRISING SAME” (EWHA UNIVERSITY - INDUSTRY COLLABORATION FOUNDATION, priority 2022, published 2026)
